# Tests used:
# Assay in all cases: biochemical
# Type in all cases: biochemical
# [1] = target: T1, 363 human kinases (including Aurora A/B/C) (Homo sapiens, UniProt O15530); conditions: PDK1/PDPK1; for remaining activity at 0.1 µM: 100 nM; for remaining activity at 0.1 µM / remaining activity at 0.5 µM: read-out: % Enzyme Activity (relative to DMSO controls)
# T1 sequence (O15530 1-556): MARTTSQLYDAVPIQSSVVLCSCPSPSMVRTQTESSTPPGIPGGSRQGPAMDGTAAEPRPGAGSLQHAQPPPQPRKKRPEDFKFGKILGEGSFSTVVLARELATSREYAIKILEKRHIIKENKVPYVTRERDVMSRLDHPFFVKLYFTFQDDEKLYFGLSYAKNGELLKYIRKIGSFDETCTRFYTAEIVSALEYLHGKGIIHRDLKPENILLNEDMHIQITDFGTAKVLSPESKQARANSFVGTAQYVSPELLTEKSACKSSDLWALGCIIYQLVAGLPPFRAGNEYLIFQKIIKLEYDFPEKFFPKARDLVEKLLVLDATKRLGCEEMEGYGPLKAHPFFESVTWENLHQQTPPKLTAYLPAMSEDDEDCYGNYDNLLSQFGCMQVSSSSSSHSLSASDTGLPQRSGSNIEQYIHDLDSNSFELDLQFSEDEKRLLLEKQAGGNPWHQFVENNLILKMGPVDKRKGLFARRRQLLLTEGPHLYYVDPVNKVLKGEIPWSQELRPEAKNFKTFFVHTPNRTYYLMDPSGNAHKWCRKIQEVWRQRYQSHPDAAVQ
# Description: (§1) However, the Aurora A/B selectivity ratios derived from our in vitro and in vivo data can be compared to prioritize inhibitors.
# [2] = target: T2, 363 human kinases (including Aurora A/B/C) (Homo sapiens, UniProt P54753); conditions: EPHB3, [ATP] 50 µM; for remaining activity at 0.1 µM: 100 nM; for remaining activity at 0.1 µM / remaining activity at 0.5 µM: read-out: % Enzyme Activity (relative to DMSO controls)
# T2 sequence (P54753 34-998): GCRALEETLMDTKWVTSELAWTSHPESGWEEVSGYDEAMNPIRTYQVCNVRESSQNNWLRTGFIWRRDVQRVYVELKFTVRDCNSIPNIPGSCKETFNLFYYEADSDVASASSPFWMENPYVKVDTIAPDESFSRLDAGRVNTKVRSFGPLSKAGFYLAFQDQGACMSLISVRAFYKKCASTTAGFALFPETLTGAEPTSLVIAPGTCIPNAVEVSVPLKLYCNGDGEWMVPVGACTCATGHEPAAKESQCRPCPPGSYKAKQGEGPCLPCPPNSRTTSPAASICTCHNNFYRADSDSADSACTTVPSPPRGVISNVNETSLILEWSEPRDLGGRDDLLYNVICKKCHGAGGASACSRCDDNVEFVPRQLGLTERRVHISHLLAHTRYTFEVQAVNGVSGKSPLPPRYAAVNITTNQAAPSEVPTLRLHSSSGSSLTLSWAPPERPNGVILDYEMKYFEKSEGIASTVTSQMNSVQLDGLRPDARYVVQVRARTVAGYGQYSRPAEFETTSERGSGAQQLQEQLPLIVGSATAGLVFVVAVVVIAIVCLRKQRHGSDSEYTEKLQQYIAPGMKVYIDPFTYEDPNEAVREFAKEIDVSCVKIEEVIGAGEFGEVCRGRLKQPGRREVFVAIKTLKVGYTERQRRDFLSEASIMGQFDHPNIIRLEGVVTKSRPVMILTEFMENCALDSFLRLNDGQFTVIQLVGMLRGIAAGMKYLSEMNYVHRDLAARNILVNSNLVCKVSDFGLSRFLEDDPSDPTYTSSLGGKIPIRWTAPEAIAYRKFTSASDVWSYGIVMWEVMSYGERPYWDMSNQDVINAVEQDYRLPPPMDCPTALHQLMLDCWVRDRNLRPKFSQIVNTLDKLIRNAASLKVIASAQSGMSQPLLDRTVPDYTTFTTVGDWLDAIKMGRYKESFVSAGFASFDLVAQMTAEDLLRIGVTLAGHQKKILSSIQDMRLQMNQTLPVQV
# Description: as §1
# [3] = target: 363 human kinases (including Aurora A/B/C) (Homo sapiens, UniProt Q07002); conditions: CDK18/cyclin Y (PCTK3), [ATP] 50 µM; for remaining activity at 0.1 µM: 100 nM; for remaining activity at 0.1 µM / remaining activity at 0.5 µM: read-out: % Enzyme Activity (relative to DMSO controls)
# Sequence of 363 human kinases (including Aurora A/B/C) (Homo sapiens, UniProt Q07002) (Q07002 whole entry): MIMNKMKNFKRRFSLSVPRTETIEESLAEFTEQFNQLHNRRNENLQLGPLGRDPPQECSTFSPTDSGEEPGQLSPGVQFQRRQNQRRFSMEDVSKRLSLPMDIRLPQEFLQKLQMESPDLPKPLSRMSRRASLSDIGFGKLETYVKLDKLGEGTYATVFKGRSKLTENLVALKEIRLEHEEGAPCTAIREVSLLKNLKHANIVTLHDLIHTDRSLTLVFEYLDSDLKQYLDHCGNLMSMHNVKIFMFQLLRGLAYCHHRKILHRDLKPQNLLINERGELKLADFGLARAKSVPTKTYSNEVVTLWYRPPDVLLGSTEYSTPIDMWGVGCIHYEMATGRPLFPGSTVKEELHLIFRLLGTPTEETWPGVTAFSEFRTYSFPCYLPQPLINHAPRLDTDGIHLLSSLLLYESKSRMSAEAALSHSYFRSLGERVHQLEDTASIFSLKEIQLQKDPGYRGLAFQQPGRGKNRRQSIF
# Description: as §1
# [4] = target: 363 human kinases (including Aurora A/B/C) (Homo sapiens, UniProt Q86UE8); conditions: TLK2; for remaining activity at 0.1 µM: 100 nM; for remaining activity at 0.1 µM / remaining activity at 0.5 µM: read-out: % Enzyme Activity (relative to DMSO controls)
# Sequence of 363 human kinases (including Aurora A/B/C) (Homo sapiens, UniProt Q86UE8) (Q86UE8 whole entry): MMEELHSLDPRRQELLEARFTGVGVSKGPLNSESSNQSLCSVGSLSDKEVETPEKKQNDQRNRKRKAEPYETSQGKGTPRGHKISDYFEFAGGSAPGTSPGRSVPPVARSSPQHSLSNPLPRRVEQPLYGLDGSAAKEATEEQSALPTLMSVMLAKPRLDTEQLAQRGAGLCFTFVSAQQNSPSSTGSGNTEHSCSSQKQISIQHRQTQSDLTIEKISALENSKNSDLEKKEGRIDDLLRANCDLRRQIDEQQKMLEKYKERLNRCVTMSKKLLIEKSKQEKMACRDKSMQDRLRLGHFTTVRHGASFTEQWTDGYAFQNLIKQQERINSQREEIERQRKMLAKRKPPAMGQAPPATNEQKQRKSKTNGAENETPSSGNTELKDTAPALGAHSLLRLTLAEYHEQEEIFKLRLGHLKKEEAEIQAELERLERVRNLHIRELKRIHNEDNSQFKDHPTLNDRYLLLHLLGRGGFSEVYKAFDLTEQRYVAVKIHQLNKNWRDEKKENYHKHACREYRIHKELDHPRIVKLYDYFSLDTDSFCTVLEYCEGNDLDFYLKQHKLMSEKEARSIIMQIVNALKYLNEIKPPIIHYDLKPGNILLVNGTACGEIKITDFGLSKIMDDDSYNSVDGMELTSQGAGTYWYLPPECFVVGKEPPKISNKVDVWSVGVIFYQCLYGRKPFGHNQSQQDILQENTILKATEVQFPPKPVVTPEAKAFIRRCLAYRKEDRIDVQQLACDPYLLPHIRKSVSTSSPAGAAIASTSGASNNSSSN
# Description: as §1
# [5] = target: 363 human kinases (including Aurora A/B/C) (Homo sapiens, UniProt Q8IU85); conditions: CAMK1d, [ATP] 2.5 µM; for remaining activity at 0.1 µM: 100 nM; for remaining activity at 0.1 µM / remaining activity at 0.5 µM: read-out: % Enzyme Activity (relative to DMSO controls)
# Sequence of 363 human kinases (including Aurora A/B/C) (Homo sapiens, UniProt Q8IU85) (Q8IU85 whole entry): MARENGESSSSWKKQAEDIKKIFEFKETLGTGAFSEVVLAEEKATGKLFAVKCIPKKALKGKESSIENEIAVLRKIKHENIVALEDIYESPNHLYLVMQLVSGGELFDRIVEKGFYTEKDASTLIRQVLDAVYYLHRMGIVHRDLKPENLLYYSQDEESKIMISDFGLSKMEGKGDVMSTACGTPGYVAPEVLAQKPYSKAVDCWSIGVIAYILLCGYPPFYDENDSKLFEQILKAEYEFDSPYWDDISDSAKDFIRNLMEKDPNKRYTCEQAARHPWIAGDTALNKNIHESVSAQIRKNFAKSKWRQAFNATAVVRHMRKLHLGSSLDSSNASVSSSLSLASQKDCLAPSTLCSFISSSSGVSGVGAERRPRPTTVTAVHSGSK
# Description: as §1
# [6] = target: T3, 363 human kinases (including Aurora A/B/C) (Homo sapiens, UniProt Q8TDC3); conditions: BRSK1, [ATP] 50 µM; for remaining activity at 0.1 µM: 100 nM; for remaining activity at 0.1 µM / remaining activity at 0.5 µM: read-out: % Enzyme Activity (relative to DMSO controls)
# T3 sequence (Q8TDC3 1-778): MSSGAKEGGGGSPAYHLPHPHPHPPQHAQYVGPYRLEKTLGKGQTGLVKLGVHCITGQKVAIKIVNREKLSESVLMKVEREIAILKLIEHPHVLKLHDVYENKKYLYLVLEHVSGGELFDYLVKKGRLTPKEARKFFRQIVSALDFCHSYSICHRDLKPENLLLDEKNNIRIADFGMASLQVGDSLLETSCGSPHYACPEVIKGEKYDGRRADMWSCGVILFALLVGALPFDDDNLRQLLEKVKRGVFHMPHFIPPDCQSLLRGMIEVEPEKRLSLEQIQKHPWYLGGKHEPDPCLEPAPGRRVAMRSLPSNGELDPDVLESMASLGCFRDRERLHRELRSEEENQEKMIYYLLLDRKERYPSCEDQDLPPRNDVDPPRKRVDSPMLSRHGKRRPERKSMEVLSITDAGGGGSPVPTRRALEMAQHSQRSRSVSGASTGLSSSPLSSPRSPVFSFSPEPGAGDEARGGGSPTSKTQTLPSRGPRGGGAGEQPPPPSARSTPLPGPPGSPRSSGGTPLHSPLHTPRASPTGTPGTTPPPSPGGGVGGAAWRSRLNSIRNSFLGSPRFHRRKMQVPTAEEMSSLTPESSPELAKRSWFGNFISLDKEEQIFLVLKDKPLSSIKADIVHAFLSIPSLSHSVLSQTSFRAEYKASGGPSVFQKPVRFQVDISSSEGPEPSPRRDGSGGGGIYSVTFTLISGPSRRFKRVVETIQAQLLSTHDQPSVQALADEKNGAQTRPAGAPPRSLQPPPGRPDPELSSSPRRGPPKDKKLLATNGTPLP
# Description: as §1
SMILES,remaining activity at 0.1 µM [1] [%],remaining activity at 0.1 µM [2] [%],remaining activity at 0.1 µM [3] [%],remaining activity at 0.1 µM [4] [%],remaining activity at 0.1 µM [5] [%],remaining activity at 0.1 µM [6] [%],remaining activity at 0.5 µM ([1]; 500 nM) [%],remaining activity at 0.5 µM ([2]; 500 nM) [%],remaining activity at 0.5 µM ([3]; 500 nM) [%],remaining activity at 0.5 µM ([4]; 500 nM) [%],remaining activity at 0.5 µM ([5]; 500 nM) [%],remaining activity at 0.5 µM ([6]; 500 nM) [%],% Enzyme Activity (relative to DMSO controls) ([1]; 500 nM) [%],% Enzyme Activity (relative to DMSO controls) ([2]; 500 nM) [%],% Enzyme Activity (relative to DMSO controls) ([3]; 500 nM) [%],% Enzyme Activity (relative to DMSO controls) ([4]; 500 nM) [%],% Enzyme Activity (relative to DMSO controls) ([5]; 500 nM) [%],% Enzyme Activity (relative to DMSO controls) ([6]; 500 nM) [%]
CCn1cc(-c2ccnc3[nH]c(-c4cccc(CN(C)C)c4)cc23)c(-c2ccc(NC(=O)N(C)C)cc2)n1 [GSK1070916],94,94.5,107,100,111,85.9,,,,,,,,,,,,
O=C(O)[C@]1(Cc2cccc(Nc3nccs3)n2)CC[C@@H](Oc2cccc(Cl)c2F)CC1 [MK-5108],98.7,102,85.9,111,94.4,95.8,88.8,89.5,108,98.3,114,82.2,,,,,,
O=C(c1cccc(Cl)c1F)N1CCN(Cc2cccc(Nc3nccs3)n2)CC1 [MK-8745],,,,,,,94.7,93,107,100,114,98.2,93.63,92.59,106.28,99.16,112.12,97.71
